Key:
cytokine release = experiment: Panel of standard cell-based in vitro assays evaluating cytokine release inhibition; conditions: prodrugs compared to the steroid drugs (Examples 27 and 62, respectively)
Experimental: The selected compounds of the invention were tested in a panel of standard, cell-based in vitro assays evaluating the cytokine release inhibition and thus the anti-inflammatory activity of a test article. Several potent steroid analogs were identified, namely compounds described in Examples 23, 27, 43, 59 and 62. […] Therefore by masking the pharmacological properties of a respective steroid the mutual prodrug mitigates the oropharyngeal side effects and confines the antiinflammatory activity of a steroid to the endobronchial space, where the lung enzymes (specifically alkaline phosphatase) release the pharmacologically active steroid (see Examples 141-143).

[1] = test system: splenic lymphocytes isolated from C57BL/6 mice and CBA mice; experiment: Immunosuppression ([3H]TMD incorporation in mouse splenic lymphocytes); assay type: cell-based; conditions: Mus musculus, Splenic lymphocyte; read-out: Immunosuppresion IC50
alkaline phosphatase = experiment: Conversion of mutual prodrugs after exposure to alkaline phosphatase (ALP experiment); conditions: for course in the reaction solution (with enzyme): alkaline phosphatase ~600 ng/μl, pH 7.4, 37° C., LCMS; for Prodrug 16 Concentration: mutual prodrug 16 + alkaline phosphatase; for Prodrug 17 Concentration: mutual prodrug 17 + alkaline phosphatase;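 for all read-outs here: mutual prodrug and its released products quantified by LCMS over time in buffer with alkaline phosphatase, compared against enzyme-free control buffer, incubations running 25–50 hours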
Experimental: Reaction and control solutions were prepared by adding a 500 μL aliquot of a ˜200 ng/μl solution in 1:1 acetonitrile/water of and the compound 16 (or alternatively 17) to 500 μl of a pH 7.4 buffer solution, containing 5 mM tris(hydroxymethyl)aminomethane, 1 mM ZnCl2, 1 mM MgCl2. For the reaction solutions, the buffer also contained approximately 600 ng/μl of alkaline phosphatase (Sigma-Aldrich) whereas the control buffer solutions contained no enzyme. The reaction and control solutions were incubated at 37° C. for 25 to 50 hours. The solutions were analyzed periodically for the respective mutual prodrug and reaction products by LCMS.
The concentration of the alkaline phosphatase in the reaction buffer was ˜600 ng/μL (the enzyme activity of the solution was not determined).
The concentration of the alkaline phosphatase in the buffer added to the stock solution was ˜600 ng/μl (the enzyme activity of the solution was not determined).

TNF-α = TNF-α secretion (h) (PBMC); assay type: cell-based, human; conditions: Homo sapiens, 24 h, read-out: TNF-α secretion IC50
[2] = Control solution without enzyme (pH 7.4 buffer, 37° C.); assay type: physicochemical; conditions: 25 to 50 hours, LCMS

With `C[C@]12C=CC(=O)C=C1CC[C@H]1[C@@H]3C[C@H]4O[C@@H](C5CCCCC5)O[C@@]4(C(=O)CN4CC[N+](C)(Cc5ccc(C(O)CNCCCCCCOCCCCc6ccccc6)cc5OP(=O)(O)O)CC4)[C@@]3(C)C[C@H](O)[C@@]12F` (stereo partly drawn) [Example 107, Salmeterol-phosphate-16,17-[(Cyclohexylmethylene)bis(oxy)]-9-fluoro-11-hydroxy-21-(4-methylpiperazinium)-pregna-1,4-diene-3,20-dione[11β,16α(R)]] the “anti-inflammatory activity (cytokine release inhibition), assessment in words” value (cytokine release) was “less active or inactive”, the IC50 [1] was 0.08 µM and the “course in the reaction solution (with enzyme)” value (alkaline phosphatase) was “disappearance of the mutual prodrug 16”. For the same compound, the “Prodrug 16 Concentration” value (alkaline phosphatase; 0.00 Hours @ 37° C.) was 91.0 nmol/mL, the “Prodrug 16 Concentration” value (alkaline phosphatase; 0.59 Hours @ 37° C.) was 87.7 nmol/mL and the “Prodrug 16 Concentration” value (alkaline phosphatase; 1.19 Hours @ 37° C.) was 78.6 nmol/mL. For the same compound, the “Prodrug 16 Concentration” value (alkaline phosphatase; 2.96 Hours @ 37° C.) was 67.8 nmol/mL, the “Prodrug 16 Concentration” value (alkaline phosphatase; 3.56 Hours @ 37° C.) was 62.3 nmol/mL and the “Prodrug 16 Concentration” value (alkaline phosphatase; 4.15 Hours @ 37° C.) was 61.6 nmol/mL. The “Prodrug 16 Concentration” value (alkaline phosphatase; 10.67 Hours @ 37° C.) was 43.1 nmol/mL, the “Prodrug 16 Concentration” value (alkaline phosphatase; 15.41 Hours @ 37° C.) was 36.7 nmol/mL and the “Prodrug 16 Concentration” value (alkaline phosphatase; 19.56 Hours @ 37° C.) was 33.1 nmol/mL. The “Prodrug 16 Concentration” value (alkaline phosphatase; 24.30 Hours @ 37° C.) was 29.3 nmol/mL, the “Prodrug 16 Concentration” value (alkaline phosphatase; 30.82 Hours @ 37° C.) was 24.8 nmol/mL and the “Prodrug 16 Concentration” value (alkaline phosphatase; 34.97 Hours @ 37° C.) was 23.0 nmol/mL. The IC50 (TNF-α) was 0.81 µM and the “compounds detected in the control solution (without enzyme)” value [2] was “Only the mutual prodrug 16 was detected”.
With `C[C@]12C=CC(=O)C=C1CCC1C3C[C@H]4OC(c5ccc[n+](Cc6ccc(C(O)CNCCCCCCOCCCCc7ccccc7)cc6OP(=O)(O)O)c5)O[C@@]4(C(=O)CO)[C@@]3(C)C[C@H](O)[C@@]12F` (stereo partly drawn) [Example 133] the “anti-inflammatory activity (cytokine release inhibition), assessment in words” value (cytokine release) was “less active or inactive”, the IC50 [1] was 0.18 µM and the “course in the reaction solution (with enzyme)” value (alkaline phosphatase) was “disappearance of the mutual prodrug”. For the same compound, the “Prodrug 17 Concentration” value (alkaline phosphatase; 0.00 Hours @ 37° C.) was 214.4 nmol/mL, the “Prodrug 17 Concentration” value (alkaline phosphatase; 0.53 Hours @ 37° C.) was 112.6 nmol/mL and the “Prodrug 17 Concentration” value (alkaline phosphatase; 1.05 Hours @ 37° C.) was 44.9 nmol/mL. The “Prodrug 17 Concentration” value (alkaline phosphatase; 2.10 Hours @ 37° C.) was 9.8 nmol/mL, the “Prodrug 17 Concentration” value (alkaline phosphatase; 3.16 Hours @ 37° C.) was 4.2 nmol/mL and the “Prodrug 17 Concentration” value (alkaline phosphatase; 4.21 Hours @ 37° C.) was 3.7 nmol/mL. The “Prodrug 17 Concentration” value (alkaline phosphatase; 10.52 Hours @ 37° C.) was 0.0 nmol/mL, the “Prodrug 17 Concentration” value (alkaline phosphatase; 19.99 Hours @ 37° C.) was 0.0 nmol/mL and the “Prodrug 17 Concentration” value (alkaline phosphatase; 29.46 Hours @ 37° C.) was 0.0 nmol/mL. For the same compound, the “Prodrug 17 Concentration” value (alkaline phosphatase; 39.99 Hours @ 37° C.) was 0.0 nmol/mL, the “Prodrug 17 Concentration” value (alkaline phosphatase; 49.46 Hours @ 37° C.) was 0.0 nmol/mL and the IC50 (TNF-α) was > 1 µM. For the same compound, the “compounds detected in the control solution (without enzyme)” value [2] was “Only the mutual prodrug 17 was detected”.
